ChEMBL document CHEMBL3885861, “Open TG-GATES”

Species: Rattus norvegicus
Experiment: Open TG-GATES - Regimen: Single
Type: toxicity, organism-based, Sprague-Dawley
Parameters: regimen Single, gender Male, age 6 weeks
Details: in vivo, po, 0 mg/kg, route gavage, dose level Control; for Bas / Eos / Fbg / Hb / Ht / Lym / MCH / MCHC / Mono / Neu / PT / Plat / RBC / Ret / WBC: tissue Blood; for KIDNEY_L / KIDNEY_R / KIDNEY_TOTAL: tissue Kidney; for LIVER: tissue Liver; for ALP / ALT / AST / BUN / CRE / Ca / DBIL / IP / K / LDH / Na / PL / RALB / TBIL / TC / TG / TP / gamma-GTP: tissue Plasma

CCC(C)(C)C(=O)O[C@H]1C[C@@H](C)C=C2C=C[C@H](C)[C@H](CC[C@@H]3C[C@@H](O)CC(=O)O3)[C@H]21 [SIMVASTATIN]
TERMINAL_BW (3 h): 203.4 g
Bas (3 h): 0%
Eos (3 h): 1%
Fbg (3 h): 216.8 mg/dL
Hb (3 h): 12.9 g/dL
Ht (3 h): 39.1%
Lym (3 h): 83.6%
MCH (3 h): 21.5 pg
MCHC (3 h): 32.8%
Mono (3 h): 6%
Neu (3 h): 9.6%
PT (3 h): 11 s
Plat (3 h): 101.5 x10_4/uL
RBC (3 h): 596.2 x10_4/ul
Ret (3 h): 7.8%
WBC (3 h): 114.1 x10_2/uL
KIDNEY_L (3 h): 0.9 g
KIDNEY_R (3 h): 1 g
KIDNEY_TOTAL (3 h): 1.9 g
LIVER (3 h): 9.7 g
ALP (3 h): 839.8 IU/L
ALT (3 h): 35.4 IU/L
AST (3 h): 61.6 IU/L
BUN (3 h): 14.4 mg/dL
CRE (3 h): 0.6 mg/dL
Ca (3 h): 11 mg/dL
DBIL (3 h): 0.02 mg/dL
IP (3 h): 9.1 mg/dL
K (3 h): 4.4 meq/L
LDH (3 h): 82.2 IU/L
Na (3 h): 138.8 meq/L
PL (3 h): 147.4 mg/dL
RALB (3 h): 3.5 g/dL
TBIL (3 h): 0.4 mg/dL
TC (3 h): 83.8 mg/dL
TG (3 h): 63.6 mg/dL
TP (3 h): 5.6 g/dL
gamma-GTP (3 h): 1.6 IU/L
TERMINAL_BW (6 h): 199.1 g
Bas (6 h): 0%
Eos (6 h): 1%
Fbg (6 h): 208.2 mg/dL
Hb (6 h): 13 g/dL
Ht (6 h): 39.5%
Lym (6 h): 79.8%
MCH (6 h): 21.8 pg
MCHC (6 h): 32.8%
Mono (6 h): 6.2%
Neu (6 h): 13%
PT (6 h): 11.8 s
Plat (6 h): 111.5 x10_4/uL
RBC (6 h): 597.2 x10_4/ul
Ret (6 h): 9.2%
WBC (6 h): 109.4 x10_2/uL
KIDNEY_L (6 h): 0.9 g
KIDNEY_R (6 h): 0.9 g
KIDNEY_TOTAL (6 h): 1.7 g
LIVER (6 h): 8.5 g
ALP (6 h): 648 IU/L
ALT (6 h): 29 IU/L
AST (6 h): 60.4 IU/L
CRE (6 h): 0.5 mg/dL
Ca (6 h): 10.8 mg/dL
DBIL (6 h): 0.046 mg/dL
IP (6 h): 9.4 mg/dL
K (6 h): 4.5 meq/L
LDH (6 h): 77 IU/L
Na (6 h): 137.8 meq/L
PL (6 h): 120.4 mg/dL
RALB (6 h): 3.6 g/dL
TBIL (6 h): 0.4 mg/dL
TC (6 h): 70.6 mg/dL
TG (6 h): 47.8 mg/dL
TP (6 h): 5.5 g/dL
gamma-GTP (6 h): 1 IU/L
TERMINAL_BW (9 h): 197.5 g
Bas (9 h): 0%
Eos (9 h): 1%
Fbg (9 h): 215.2 mg/dL
Hb (9 h): 13.2 g/dL
Ht (9 h): 40.2%
Lym (9 h): 85.6%
MCHC (9 h): 32.9%
Mono (9 h): 5.4%
Neu (9 h): 8.2%
PT (9 h): 11.7 s
Plat (9 h): 114.5 x10_4/uL
RBC (9 h): 605.4 x10_4/ul
Ret (9 h): 10.2%
WBC (9 h): 96.4 x10_2/uL
KIDNEY_L (9 h): 0.9 g
KIDNEY_R (9 h): 0.9 g
KIDNEY_TOTAL (9 h): 1.8 g
LIVER (9 h): 8.4 g
ALP (9 h): 810.4 IU/L
ALT (9 h): 29.2 IU/L
AST (9 h): 58.4 IU/L
BUN (9 h): 12.2 mg/dL
CRE (9 h): 0.6 mg/dL
Ca (9 h): 10.9 mg/dL
DBIL (9 h): 0.04 mg/dL
IP (9 h): 10.9 mg/dL
K (9 h): 4.6 meq/L
LDH (9 h): 68.2 IU/L
Na (9 h): 137.6 meq/L
PL (9 h): 110.8 mg/dL
RALB (9 h): 3.7 g/dL
TBIL (9 h): 0.4 mg/dL
TC (9 h): 61.8 mg/dL
TG (9 h): 34.2 mg/dL
TP (9 h): 5.2 g/dL
gamma-GTP (9 h): 1.8 IU/L
TERMINAL_BW (24 h): 215.6 g
Bas (24 h): 0%
Eos (24 h): 1%
Fbg (24 h): 222.6 mg/dL
Hb (24 h): 13 g/dL
Ht (24 h): 40.1%
Lym (24 h): 82.8%
MCHC (24 h): 32.5%
Mono (24 h): 8.2%
Neu (24 h): 8.4%
Plat (24 h): 113.8 x10_4/uL
RBC (24 h): 614 x10_4/ul
Ret (24 h): 9.5%
KIDNEY_L (24 h): 1 g
KIDNEY_R (24 h): 1 g
KIDNEY_TOTAL (24 h): 2 g
ALP (24 h): 887.6 IU/L
ALT (24 h): 38.8 IU/L
AST (24 h): 65 IU/L
BUN (24 h): 18.6 mg/dL
CRE (24 h): 0.6 mg/dL
Ca (24 h): 10.8 mg/dL
DBIL (24 h): 0.05 mg/dL
IP (24 h): 8 mg/dL
K (24 h): 4.6 meq/L
LDH (24 h): 97.8 IU/L
Na (24 h): 139.4 meq/L
PL (24 h): 144.8 mg/dL
RALB (24 h): 3.7 g/dL
TBIL (24 h): 0.4 mg/dL
TC (24 h): 79.6 mg/dL
